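Following 48 hours of exposure in 96-well plates, responses at five concentrations were used to interpolate endpoints linearly. At the GI50, growth is halved.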 Calls of active or inactive are those of the source. Cut-off read from the data, not from the text of the source: active = GI50 up to about 1.1 µM and inactive = higher.

Results on eleven compounds are retold here after ChEMBL document CHEMBL1201862, “PubChem BioAssay data set” (2004).

Test systems include ACHN; HCT-116; HL-60; HOP-62; HT-29; KM12; M14; MDA-N; NCI-H226; NCI/ADR-RES; OVCAR-8; PC-3; SN12C; SR; TK-10; UACC-257; UO-31; MOLT-4; RPMI-8226.
Test in all cases: NCI tumour cell line growth inhibition, 48 h

For the compound `COc1cc2ccc(C(=O)NCCCNC(=O)c3ccc4cc(OC)c(OC)cc4c3)cc2cc1OC`, the GI50 in the experiment with ACHN, with HCT-116, with HL-60, in the experiment with HOP-62, in the experiment with HT-29 and in the experiment with KM12 was > 100 µM (inactive) in each case. For the same compound, the GI50 with M14, with MDA-N, in the experiment on NCI-H226, in the experiment with NCI/ADR-RES, with OVCAR-8 and in the experiment with PC-3 was > 100 µM (inactive) each time. Further, the GI50 was > 100 µM (inactive) in the experiment on SN12C; 35.5 µM (inactive) in the experiment with SR; > 100 µM (inactive) in the experiment with TK-10; > 100 µM (inactive) with UACC-257; > 100 µM (inactive) in the experiment on UO-31.

With `Cc1ccc(C)c(COCCOCn2c(=O)[nH]c(=O)c3cc(Br)ccc32)c1`, the GI50 is > 100 µM (inactive) in the experiment on ACHN; > 100 µM (inactive) in the experiment on HCT-116; > 100 µM (inactive) in the experiment with HL-60; 41.7 µM (inactive) with HOP-62; 98.2 µM (inactive) in the experiment on HT-29; > 100 µM (inactive) in the experiment with KM12. Further, the GI50 in the experiment with M14 is > 100 µM (inactive); with MDA-N, > 100 µM (inactive); in the experiment on MOLT-4 it was > 100 µM (inactive); with NCI-H226, > 100 µM (inactive); in the experiment on NCI/ADR-RES, > 100 µM (inactive); with OVCAR-8, 94.2 µM (inactive). The GI50 with PC-3 is > 100 µM (inactive); with SN12C it was > 100 µM (inactive); with SR, > 100 µM (inactive); in the experiment with TK-10, 55.3 µM (inactive); with UACC-257, 72.1 µM (inactive); in the experiment on UO-31, > 100 µM (inactive).

As for `Cc1cccc2c1c(=O)c1c(O)c3c(cc1n2C)OC(C)(C)C=C3`, the GI50 is > 10 µM (inactive) in the experiment with ACHN; > 10 µM (inactive) in the experiment with HCT-116; > 10 µM (inactive) with HL-60; > 10 µM (inactive) in the experiment on HOP-62; 3.59 µM (inactive) in the experiment on HT-29; > 10 µM (inactive) in the experiment on KM12. Moreover, the GI50 was > 10 µM (inactive) in the experiment on M14; > 10 µM (inactive) in the experiment on MDA-N; > 10 µM (inactive) with MOLT-4; 6.46 µM (inactive) in the experiment with NCI-H226; > 10 µM (inactive) with NCI/ADR-RES; > 10 µM (inactive) in the experiment with OVCAR-8. Also, the GI50 in the experiment with PC-3 was > 10 µM (inactive); in the experiment with RPMI-8226, > 10 µM (inactive); in the experiment with SN12C it was > 10 µM (inactive); in the experiment with SR, 9.53 µM (inactive); with TK-10, > 10 µM (inactive); in the experiment on UACC-257, > 10 µM (inactive).

Consider `O=C(/C=C/c1ccc2c(c1)OCO2)c1ccc(O)cc1`, for which the GI50 is 20.2 µM (inactive) in the experiment with ACHN; 13.4 µM (inactive) in the experiment on HCT-116; 5.25 µM (inactive) in the experiment on HL-60; 26.8 µM (inactive) in the experiment with HOP-62; 15.4 µM (inactive) in the experiment with HT-29; 18.1 µM (inactive) in the experiment with M14. The GI50 in the experiment with MDA-N is 10.8 µM (inactive); in the experiment on NCI-H226, 18.5 µM (inactive); with NCI/ADR-RES it was 1.76 µM (inactive); in the experiment on OVCAR-8 it was 1.64 µM (inactive); in the experiment on PC-3, 15 µM (inactive); with SN12C, 15.5 µM (inactive). The GI50 was 1.17 µM (inactive) with SR, 18.7 µM (inactive) in the experiment with TK-10, 15.3 µM (inactive) with UACC-257 and 13.4 µM (inactive) with UO-31.

With `C=C(C)C1CC2=C(C(=O)OC)C=C(O2)C(C(=C)C)[C@@H]2OC(=O)/C(=C\C1O)[C@H]2N(C)C` (stereo partly specified), the GI50 in the experiment on ACHN is 11.7 µM (inactive); in the experiment with HCT-116, 13.8 µM (inactive); with HL-60 it was 2.82 µM (inactive); with HOP-62, 19.4 µM (inactive); with HT-29, 15 µM (inactive); in the experiment on KM12, 13.7 µM (inactive). Further, the GI50 in the experiment on M14 was 12.9 µM (inactive); in the experiment on MDA-N, 11.4 µM (inactive); in the experiment with NCI-H226, 7.69 µM (inactive); with NCI/ADR-RES, 8.07 µM (inactive); in the experiment with OVCAR-8, 10.9 µM (inactive); with PC-3, 11.4 µM (inactive). For the same compound, the GI50 with RPMI-8226 is 3.23 µM (inactive); in the experiment on SN12C, 12.5 µM (inactive); in the experiment on SR it was 6.92 µM (inactive); in the experiment on TK-10, 1.6 µM (inactive); in the experiment with UACC-257, 20.9 µM (inactive); with UO-31, 13.4 µM (inactive).

As for `NCC(=O)N1CCN(c2nc(N3CCCC3)c3nc(Cl)c(NCc4ccccc4)nc3n2)CC1`, the GI50 in the experiment with ACHN is 2.11 µM (inactive); in the experiment with HCT-116 it was 1.79 µM (inactive); in the experiment with HL-60, 1.81 µM (inactive); in the experiment with HOP-62, 1.56 µM (inactive); in the experiment on HT-29, 1.91 µM (inactive); with KM12, 2.04 µM (inactive). The GI50 with M14 is 1.72 µM (inactive); with MDA-N, 1.82 µM (inactive); with MOLT-4 it was 1.12 µM (inactive); in the experiment on NCI-H226, 3.66 µM (inactive); with NCI/ADR-RES, 8.26 µM (inactive); in the experiment on OVCAR-8, 1.77 µM (inactive). The GI50 in the experiment with PC-3 is 2.48 µM (inactive); in the experiment on SN12C it was 1.85 µM (inactive); in the experiment on SR, 1.56 µM (inactive); in the experiment with TK-10 it was 1.9 µM (inactive); in the experiment on UACC-257, 1.74 µM (inactive); in the experiment with UO-31 it was 1.66 µM (inactive).

With `CCOC(=O)C(O)(CC1=NC(C(=O)OC)(C(=O)OC)C(c2cccc(C=O)c2)O1)C(=O)OCC` (stereo unspecified), the GI50 in the experiment on ACHN is > 100 µM (inactive); in the experiment with HCT-116 it was > 100 µM (inactive); with HL-60, 25.3 µM (inactive); in the experiment on HOP-62, > 100 µM (inactive); in the experiment with HT-29, > 100 µM (inactive); in the experiment with KM12, > 100 µM (inactive). Besides, the GI50 in the experiment with M14, in the experiment with MDA-N, with MOLT-4, in the experiment with NCI-H226, with NCI/ADR-RES and in the experiment with OVCAR-8 was > 100 µM (inactive) in each case. Also, the GI50 in the experiment on PC-3, in the experiment with RPMI-8226, in the experiment on SN12C, with SR, in the experiment on TK-10 and with UACC-257 was > 100 µM (inactive) throughout. For the same compound, the GI50 in the experiment with UO-31 was > 100 µM (inactive).

Take `Nc1ccc(Oc2ccc(C3(c4ccc(Oc5ccc(N)cc5)cc4)C4CC5CC(C4)CC3C5)cc2)cc1`: the GI50 in the experiment on ACHN is 7.8 µM (inactive); in the experiment on HCT-116, 0.782 µM (active); in the experiment on HL-60 it was 5 µM (inactive); with HOP-62, 11.8 µM (inactive); with HT-29, 0.489 µM (active); in the experiment on KM12 it was 3.77 µM (inactive). The GI50 in the experiment on M14 was 3.2 µM (inactive); in the experiment with MDA-N, 6.32 µM (inactive); with MOLT-4 it was 4.27 µM (inactive); with NCI-H226 it was 19.9 µM (inactive); in the experiment with NCI/ADR-RES, 15.8 µM (inactive); with OVCAR-8, 9.18 µM (inactive). Also, the GI50 with PC-3 was 5.7 µM (inactive); in the experiment on RPMI-8226, 3 µM (inactive); in the experiment on SN12C, 6.28 µM (inactive); in the experiment with SR, 3.42 µM (inactive); in the experiment on TK-10, 22.8 µM (inactive); in the experiment with UACC-257 it was 6.67 µM (inactive). The GI50 with UO-31 is 3.01 µM (inactive).

Turning to `CC(C)[N+]([O-])(CCCNc1c2ccccc2nc2cccc([N+](=O)[O-])c12)C(C)C`, the GI50 is < 0.0441 µM (active) in the experiment on ACHN; < 0.0204 µM (active) in the experiment with HCT-116; < 0.0428 µM (active) in the experiment on HL-60; 0.0525 µM (active) with HOP-62; < 0.0202 µM (active) in the experiment on HT-29; 0.065 µM (active) in the experiment on KM12. Further, the GI50 in the experiment on M14 is 0.0347 µM (active); with MDA-N, < 0.0342 µM (active); with MOLT-4, < 0.0181 µM (active); in the experiment on NCI-H226, < 0.0456 µM (active); in the experiment with NCI/ADR-RES, 0.581 µM (active); in the experiment with OVCAR-8 it was < 0.0458 µM (active). Moreover, the GI50 in the experiment on PC-3 is < 0.0473 µM (active); in the experiment with RPMI-8226, < 0.0179 µM (active); in the experiment with SN12C, 0.0551 µM (active); in the experiment on SR, 0.0142 µM (active); in the experiment with UACC-257, 0.064 µM (active).

Take `N#Cc1c(Nc2nc3ccccc3s2)c2ccccc2n2c1nc1ccccc12`: the GI50 in the experiment with ACHN was 79.8 µM (inactive); in the experiment with HCT-116, > 100 µM (inactive); in the experiment on HL-60, > 100 µM (inactive); in the experiment with HOP-62 it was 27.1 µM (inactive); with HT-29, > 100 µM (inactive); with KM12, > 100 µM (inactive). Besides, the GI50 is > 100 µM (inactive) in the experiment on M14; > 100 µM (inactive) with MDA-N; > 100 µM (inactive) in the experiment with MOLT-4; 72.4 µM (inactive) in the experiment on NCI/ADR-RES; > 100 µM (inactive) in the experiment on OVCAR-8; > 100 µM (inactive) with PC-3. For the same compound, the GI50 with RPMI-8226, with SN12C, with SR, with TK-10, in the experiment with UACC-257 and in the experiment on UO-31 was > 100 µM (inactive) in each case.

With `CSc1nc2c(c(=O)n1C)N=C(c1ccccc1)[C@H](C(CC(=O)c1ccccc1)c1ccccc1)C(c1ccccc1)N2` (stereo partly specified), the GI50 was > 100 µM (inactive) in the experiment on ACHN; 32 µM (inactive) in the experiment on HCT-116; 5.22 µM (inactive) in the experiment with HL-60; > 100 µM (inactive) in the experiment on HOP-62; > 100 µM (inactive) in the experiment on HT-29; 14.7 µM (inactive) with KM12. Also, the GI50 in the experiment on M14 is > 100 µM (inactive); in the experiment on MDA-N it was > 100 µM (inactive); in the experiment on MOLT-4, 5.94 µM (inactive); with NCI-H226, > 100 µM (inactive); in the experiment with NCI/ADR-RES, 76.6 µM (inactive); in the experiment with OVCAR-8, > 100 µM (inactive). The GI50 with PC-3 is 9.84 µM (inactive); in the experiment on RPMI-8226, 19 µM (inactive); in the experiment on SN12C it was > 100 µM (inactive); in the experiment with SR, > 100 µM (inactive); in the experiment on UACC-257, > 100 µM (inactive); with UO-31, 15 µM (inactive).
